Converted amounts (≈) assume the structure as drawn.
Experiments:
E. faecalis 0609 = experiment: MIC assay, clinical isolate; format: cell-based; conditions: Enterococcus faecalis, 0609
Description: (§1) MRSA (S. aureus Mu50, S. aureus Newman, S. aureus USA400, S. aureus USA300 LAC, S. aureus USA300) were obtained from Shanghai Institute of Materia Medica, Chinese Academy of Sciences. All clinically isolated Gram-positive bacteria used in this study were isolated from patients with various infections, different ages and sexes in the Shanghai Ruijin Rehabilitation Hospital. All strains were cultured in Luria-Bertani (LB) medium at 37 °C before use.
(§2) Bacteria were cultured in LB medium at 37 °C for 10 h, and then the bacterial suspension was diluted in Mueller–Hinton (MH) medium to a cell density of 2 × 10^5 colony forming units (CFU)/mL as the working suspension. The poly(Naeg)20 was serially diluted by MH medium in a 96-well plate, and an equal volume of bacterial suspension was added into each well. The final concentration of the poly(Naeg)20 was ranging from 200 to 1.56 μg/mL, and the plates were incubated at 37 °C for 9 h. Wells with inoculum and no polymer were used as the positive control; wells with only MH medium were used as the blank. The optical density (OD) in each well was measured on a Molecular Devices SpectraMax M2 precision microplate reader. The percentage of bacteria growth was calculated from1 %cellgrowth=A600polymer-A600blank/A600control-A600blank×100
(§3) The test was independently repeated at least three times.

E. faecium 0502 = experiment: MIC assay, clinical isolate; format: cell-based; conditions: Enterococcus faecium, 0502
Description: as §1, §2, §3

E. faecium 0609 = experiment: MIC assay, clinical isolate; format: cell-based; conditions: Enterococcus faecium, 0609
Description: as §1, §2, §3

E. faecium 0610 = experiment: MIC assay, clinical isolate; format: cell-based; conditions: Enterococcus faecium, 0610
Description: as §1, §2, §3

S. agalactiae 0613 = experiment: MIC assay, clinical isolate; format: cell-based; conditions: Streptococcus agalactiae, 0613
Description: as §1, §2, §3

S. aureus 2202 = experiment: MIC assay, clinical isolate; format: cell-based; conditions: Staphylococcus aureus, 2202
Description: as §1, §2, §3

S. aureus 2802 = experiment: MIC assay, clinical isolate; format: cell-based; conditions: Staphylococcus aureus, 2802
Description: as §1, §2, §3

S. aureus 2902 = experiment: MIC assay, clinical isolate; format: cell-based; conditions: Staphylococcus aureus, 2902
Description: as §1, §2, §3

S. aureus 2904 = experiment: MIC assay, clinical isolate; format: cell-based; conditions: Staphylococcus aureus, 2904
Description: as §1, §2, §3

S. epidermidis 0501 = experiment: MIC assay, clinical isolate; format: cell-based; conditions: Staphylococcus epidermidis, 0501
Description: as §1, §2, §3

S. epidermidis 9397 = experiment: MIC assay, clinical isolate; format: cell-based; conditions: Staphylococcus epidermidis, 9397
Description: as §1, §2, §3

S. haemolyticus 0202 [1] = experiment: MIC assay, clinical isolate; format: cell-based; conditions: Staphylococcus haemolyticus, 0202
Description: as §1, §2, §3

S. haemolyticus 1107 = experiment: MIC assay, clinical isolate; format: cell-based; conditions: Staphylococcus haemolyticus, 1107
Description: as §1, §2, §3

S. haemolyticus 1303 = experiment: MIC assay, clinical isolate; format: cell-based; conditions: Staphylococcus haemolyticus, 1303
Description: as §1, §2, §3

S. aureus ATCC6538 = experiment: Bacterial killing kinetics; format: cell-based, Staphylococcus aureus; conditions: after 4 h of treatment
S. haemolyticus 0202 [2] = experiment: Mouse peritonitis model, survival test, S. haemolyticus; format: in vivo; conditions: i.p. 20 mg/kg, 7 days
Description: This infection model was conducted according to the previously reported method with slight modification. Female ICR mice (21–24 g) were used for MRSA-infected peritonitis model. Mice were infected by intraperitoneal administration of 0.2 mL of S. aureus USA300 LAC in saline (7.5 × 10^8 CFU/mL) supplemented with 5% mucin. […] Once the infected mice died, peritoneal lavage was performed by injecting 3.0 mL of saline into the peritoneal cavity and massaging the abdomen. Subsequently, the abdomen was opened and peritoneal fluid was recovered from the abdominal cavity for analysis. Blood samples were collected through cardiac puncture for analysis of CFU/mL. Then, different organs including the heart, liver, spleen, lung, and kidney were removed and homogenized in 0.1% TX-100 solution. The homogenate was serially diluted for plating on LB agar. After incubation at 37 °C for 14 h, the number of colonies on the plate was counted to calculate the bacteria burden. Surviving mice were euthanized at 48 h after infection. The blood, peritoneal fluid, and organs were collected for the determination of bacterial colonies. […] For the pretreatment group, mice were sacrificed and tissues were harvested to determine the CFU at 1 h post infection. […]

CN[C@H](CC(C)C)C(=O)N[C@H]1C(=O)N[C@@H](CC(N)=O)C(=O)N[C@H]2C(=O)N[C@H]3C(=O)N[C@H](C(=O)N[C@H](C(=O)O)c4cc(O)cc(O)c4-c4cc3ccc4O)[C@H](O)c3ccc(c(Cl)c3)Oc3cc2cc(c3O[C@@H]2O[C@H](CO)[C@@H](O)[C@H](O)[C@H]2O[C@H]2C[C@](C)(N)[C@H](O)[C@H](C)O2)Oc2ccc(cc2Cl)[C@H]1O [Vancomycin]
MIC (E. faecalis 0609): 0.39 µg/mL (≈ 0.269 µM)
MIC (E. faecium 0502): > 200 µg/mL
MIC (E. faecium 0609): 50 µg/mL (≈ 34.5 µM)
MIC (E. faecium 0610): 0.78 µg/mL (≈ 0.538 µM)
MIC (S. agalactiae 0613): 0.78 µg/mL (≈ 0.538 µM)
MIC (S. aureus 2202): 0.78 µg/mL (≈ 0.538 µM)
MIC (S. aureus 2802): 0.39 µg/mL (≈ 0.269 µM)
MIC (S. aureus 2902): 0.39 µg/mL (≈ 0.269 µM)
MIC (S. aureus 2904): 0.39 µg/mL (≈ 0.269 µM)
MIC (S. epidermidis 0501): 0.78 µg/mL (≈ 0.538 µM)
MIC (S. epidermidis 9397): 0.78 µg/mL (≈ 0.538 µM)
MIC (S. haemolyticus 0202 [1]): 1.56 µg/mL (≈ 1.08 µM)
MIC (S. haemolyticus 1107): 0.78 µg/mL (≈ 0.538 µM)
MIC (S. haemolyticus 1303): 0.78 µg/mL (≈ 0.538 µM)
reduction of the bacteria (S. aureus ATCC6538): about 0.3 log
survival of the mice (S. haemolyticus 0202 [2]): 100%

— article PMC8501045, “Addressing MRSA infection and antibacterial resistance with peptoid polymers” (Nature Communications, 2021)
